Source: paper PMC4310350 (Drug Design, Development and Therapy, 2015)
Entries after “also recorded” stand apart in the source; their conditions may differ. Like-named read-outs stand apart in the source and are kept apart here.

T1: OATP1B3 (Homo sapiens, UniProt Q9NPD5)
T1 sequence (Q9NPD5 1-702): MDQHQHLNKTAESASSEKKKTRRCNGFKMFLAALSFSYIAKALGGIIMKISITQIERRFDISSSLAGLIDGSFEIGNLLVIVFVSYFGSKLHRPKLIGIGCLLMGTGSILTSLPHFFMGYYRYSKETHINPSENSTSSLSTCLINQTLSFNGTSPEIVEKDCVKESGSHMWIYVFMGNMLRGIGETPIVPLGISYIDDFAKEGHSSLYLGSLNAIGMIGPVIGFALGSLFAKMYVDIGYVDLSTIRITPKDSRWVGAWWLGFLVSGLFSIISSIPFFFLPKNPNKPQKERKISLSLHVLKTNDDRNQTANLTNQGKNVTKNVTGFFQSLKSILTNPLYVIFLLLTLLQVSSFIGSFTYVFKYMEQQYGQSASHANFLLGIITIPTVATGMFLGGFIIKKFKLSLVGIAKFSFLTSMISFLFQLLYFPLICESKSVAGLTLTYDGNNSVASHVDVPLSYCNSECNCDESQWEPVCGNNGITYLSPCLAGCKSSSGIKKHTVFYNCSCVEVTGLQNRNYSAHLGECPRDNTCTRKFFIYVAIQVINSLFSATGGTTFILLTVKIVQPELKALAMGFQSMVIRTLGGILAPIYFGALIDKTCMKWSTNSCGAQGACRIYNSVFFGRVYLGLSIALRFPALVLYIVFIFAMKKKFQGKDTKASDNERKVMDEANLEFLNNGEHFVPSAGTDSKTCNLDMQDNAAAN

T2: OAT3 (Homo sapiens, UniProt Q8TCC7)
T2 sequence (Q8TCC7 1-542): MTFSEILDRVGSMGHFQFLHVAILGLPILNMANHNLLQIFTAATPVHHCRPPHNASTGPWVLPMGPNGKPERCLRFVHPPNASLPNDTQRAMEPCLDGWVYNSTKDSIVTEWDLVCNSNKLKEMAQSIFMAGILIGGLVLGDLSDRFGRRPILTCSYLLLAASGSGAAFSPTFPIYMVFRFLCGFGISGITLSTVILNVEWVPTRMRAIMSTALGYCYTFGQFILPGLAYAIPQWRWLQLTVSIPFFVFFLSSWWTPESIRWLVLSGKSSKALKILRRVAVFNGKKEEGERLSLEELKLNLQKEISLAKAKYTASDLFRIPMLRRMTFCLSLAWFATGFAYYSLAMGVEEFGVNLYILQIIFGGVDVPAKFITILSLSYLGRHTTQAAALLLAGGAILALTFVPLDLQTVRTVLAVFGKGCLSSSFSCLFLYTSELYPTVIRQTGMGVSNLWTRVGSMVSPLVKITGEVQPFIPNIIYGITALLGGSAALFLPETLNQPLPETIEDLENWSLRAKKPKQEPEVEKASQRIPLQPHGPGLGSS

T3: OAT1 (Homo sapiens, UniProt Q4U2R8)
T3 sequence (Q4U2R8 1-563): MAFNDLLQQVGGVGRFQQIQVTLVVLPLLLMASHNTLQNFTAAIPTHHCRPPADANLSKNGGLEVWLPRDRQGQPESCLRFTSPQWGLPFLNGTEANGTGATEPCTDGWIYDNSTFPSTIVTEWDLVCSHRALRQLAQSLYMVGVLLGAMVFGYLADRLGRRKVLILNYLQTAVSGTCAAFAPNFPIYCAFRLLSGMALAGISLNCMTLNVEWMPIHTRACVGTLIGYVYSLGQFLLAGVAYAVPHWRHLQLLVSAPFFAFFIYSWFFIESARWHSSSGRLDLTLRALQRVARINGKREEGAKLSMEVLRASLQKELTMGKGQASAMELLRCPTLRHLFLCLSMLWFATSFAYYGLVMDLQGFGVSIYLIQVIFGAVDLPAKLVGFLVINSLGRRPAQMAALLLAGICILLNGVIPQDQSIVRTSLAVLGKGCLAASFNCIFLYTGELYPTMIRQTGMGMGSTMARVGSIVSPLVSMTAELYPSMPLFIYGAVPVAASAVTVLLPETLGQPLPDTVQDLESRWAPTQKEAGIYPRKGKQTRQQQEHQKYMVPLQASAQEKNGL

B1: OAT3 (Homo sapiens) (protein)
chain: T2 sequence (Q8TCC7 1-542)

Key:
[1] = target: T1, OATP1B3; details: cited from earlier work
[2] = target: T2, OAT3; details: cited from earlier work
[3] = target: T3, OAT1; details: cited from earlier work
[4] = system: OATP2B1; details: cited from earlier work
[5] = target: T2, OAT3; experiment: in vitro; details: HEK293 cells transiently expressing OAT3, probe catalposide 10 μM
[6] = target: T2, OAT3; details: 10 μM catalposide, HEK293-OAT3
[7] = substrate: O=C(O[C@H]1[C@@H]2C=CO[C@@H](O[C@@H]3O[C@H](CO)[C@@H](O)[C@H](O)[C@H]3O)[C@@H]2[C@@]2(CO)O[C@@H]12)c1ccc(O)cc1; experiment: Uptake in HEK293 cells overexpressing OAT3; type: in vitro ADME; details: other: OAT3-mediated uptake, 2–500 μM catalposide, 10 minutes; 37.0 °C

Molecule	Inhibition of OATP1B3 transport activity [1]	Inhibition of OAT3 transport activity [2]	Inhibition of OAT1 transport activity [3]	Effect on OAT3-mediated catalposide uptake (words) [6]	also measured
O=c1cc(-c2ccccc2)oc2cc(O)c(O)c(O)c12 [Bicalein]	significantly inhibited	significantly inhibited	significantly inhibited	–	–
COc1c(O)cc(O)c2c(=O)cc(-c3ccccc3)oc12 [wogonin]	significantly inhibited	significantly inhibited	significantly inhibited	–	–
COc1ccc(-c2oc3c(CC=C(C)C)c(O[C@@H]4O[C@H](CO)[C@@H](O)[C@H](O)[C@H]4O)cc(O)c3c(=O)c2O[C@@H]2O[C@@H](C)[C@H](O)[C@@H](O)[C@H]2O)cc1 [icariin]	–	–	–	–	Inhibition of OATP2B1 activity [4]: potentially inhibited; Inhibition of OATP1B3 activity [1]: potentially inhibited
CCCN(CCC)S(=O)(=O)c1ccc(C(=O)O)cc1 [probenecid]	–	–	–	decreased to basal levels; also recorded: inhibited OAT3-mediated catalposide transport in a concentration-dependent manner	inhibition at 10 min, 10 μM [5]: 84.5%
CN/C(=N/CCSCc1nc[nH]c1C)NC#N [cimetidine]	–	–	–	decreased to basal levels	inhibition at 10 min, 100 μM [5]: 70.4%; Effect on OAT3-mediated catalposide uptake (words) ([6]; listed as Cimetidine): inhibited OAT3-mediated catalposide transport in a concentration-dependent manner
B1	–	–	–	–	Km [7]: 41.5 µM
